Values quoted from earlier work, collected in US20100028426A1, “TIME-SPECIFIC DELAYED/PULSATILE RELEASE DOSAGE FORMS” (POLICHEM S.A., priority 2007, published 2010).

How the values were obtained:
[1] = in vivo

CCN(C(C)=O)c1cccc(-c2ccnc3c(C#N)cnn23)c1 [Zaleplon]
time to sleep onset (TSO) (sleep disorders; in vivo): effective in shortening the time to sleep onset
total sleep time and number of awakening (sleep disorders; oral immediate release formulation taken at bed time): neither increases total sleep time, nor decreases the number of awakening
time to peak concentration (t max) [1]: approximately 1 hour
